Marks after values point to notes of the source that are not given here.
Key:
[1] = system: sucrose loaded rat; assay: Sucrose loaded rat model (SLM), oral tolerance test; assay type: in vivo; parameters: % Antihyperglycemic activity SLM: concentration or dose not given beside the values
Text: On the day of experiment blood glucose of all the overnight fasted animals was checked by Glucostrips (Roche) using Glucometer (ACCU-CHEK II; Roche Diagnostics, USA). […] Animals were divided into groups consisting of five animals in each. […] The test compounds and standard drug was always prepared in the vehicle 1% gum acacia. […] Food (not water) was removed from the cages during the experimental period. […] Comparing the AUC of test sample or drug treated groups compared to control group determined the percent improvement in OGTT by test sample and standard drugs and termed as antihyperglycaemic activity. Statistical analysis between the groups was done by employing Students t test

[2] = system: sucrose challenged low dosed STZ-induced diabetic rats; assay: Sucrose challenged low dosed streptozotocin-induced diabetic rats (STZ-S); assay type: in vivo, rat
Protocol: Fasting blood glucose level of each animal was measured after 48 hours post STZ injection by Glucostrips (Roche) using Glucometer (ACCU-CHEK II; Roche Diagnostics, USA) and animals showing blood glucose level above 280 mg/dl were considered as diabetic. The diabetic rats with fasting blood glucose values varying between […] were included in this study. Animals were divided into groups consisting of five animals in each. Group one was considered as a control group, where as the other groups were termed as experimental groups. […] The test samples and standard drug (Metformin) was always prepared in the vehicle 1% gum acacia. […] Food (not water) was removed from the cages during the experimental period. […] The percent decline in AUC of the experiment group compared to sham treated control group termed as % antihyperglycaemic activity. Statistical analysis between the groups was done by employing Students t test.

[3] = system: STZ-induced diabetic rats; assay: Streptozotocin-induced diabetic rat model (STZ); assay type: in vivo; conditions: 100 mg/kg
Protocol: Male albino rats (Sprague Dawley Strain) of body weight 160±20 g were procured from the colony of CDRI Animal House. 4 to 5 animals were kept in one polypropylene cage and acclimatized for one week in the new environment. The animals were made diabetic by injecting streptozotocin (STZ) intraperitoneally to the overnight starved animals at a dose of 60 mg/kg prepared in 100 mM citrate buffer (pH 4.5). Fasting blood glucose level of each animal was measured after 48 hours post STZ injection by Glucostrips (Roche) using Glucometer (ACCU-CHEK II; Roche Diagnostics, USA) and animals showing blood glucose level above 280 mg/dl were considered as diabetic. The diabetic rats with fasting blood glucose values varying between 280-450 mg/dl were included in this study. Animals were divided into groups consisting of five animals in each. Group one was considered as a control group, where as the other groups were termed as experimental groups. Rats of experimental group were usually given 100 mg/kg body weight of the test samples unless stated otherwise and standard drug i.e. metformin, respectively. The test samples and standard drug i.e. metformin was always prepared in the vehicle 1% gum acacia. 30 min post administration of the test samples/vehicle/standard drug, blood glucose levels of the animals of all the groups were measured at 30, 60, 90, 120, 180, 240, 300 and 1440 min. Food (not water) was removed from the cages during the experimental period. A plot was drawn between time and blood glucose levels on x and y axis, respectively and the area under curve (AUC) between 0 to 300 min were calculated of each group. The percent decline in AUC of the experiment group compared to sham treated control group termed as % antihyperglycaemic activity. Statistical comparison between the groups was done by employing Student's ‘t’ test.

[4] = system: high fructose high fat fed Syrian golden hamsters; assay: Antidyslipidemic activity in high fructose high fat fed Syrian golden hamsters; assay type: in vivo
Protocol: Male Syrian golden hamsters weighing 100-120 g were divided into groups each containing six animals. Dyslipidemia was produced by feeding the animals with high fructose high fat diet (60% fructose, 13% fat) for 30 to 40 days. Dyslipidemic hamsters were divided into groups based on their Serum lipid profile. The dyslipidemic animals had free access to HFD and water throughout the experimental period. The fine suspension of 14b was fed orally at a dose of 30 mg/kg for 7 days to the animals. Control animals were given drug vehicle only, served as sham treated control. Body weight and diet intake of each animal group were recorded daily to check the effect of the test samples on food intake and body weight of the animals. At the end of the experiment period i.e. on day 8th, the blood of each animal was withdrawn from retro-orbital plexus. After keeping the tubes for 15 min. in cold, Serum was separated. Biochemical analysis of Serum was performed on the same day for triglycerides (TG), total cholesterol (TC) and HDL-cholesterol and LDL-cholesterol contents using Cobas Integra 400 plus analyzer kits. All statistical analysis will be performed with Graph Pad Prism Software. One way ANOVA, all pair wise multiple comparison procedure (Tukey test). Data will be reported as mean±SEM.

[5] = Stability in simulated gastric and intestinal fluid; assay type: in vitro ADME

## C/C(=N\OCCN1CCCCC1)[C@H]1CC[C@H]2[C@@H]3CC=C4C[C@@H](O)CC[C@]4(C)[C@H]3CC[C@]12C [Compound 14b, 3β-Hydroxy-pregna-5-en-20-one-O-(2-piperidin-1-yl-ethyl)-oxime]
[1]; 100 mg/kg
  Blood glucose profile, 0 min post glucose load: 94.2 ± 2.6 mg/dL
  Blood glucose profile, 30 min post glucose load: 120.8 ± 2.1 mg/dL
  Blood glucose profile, 60 min post glucose load: 101.4 ± 2.9 mg/dL
  Blood glucose profile, 90 min post glucose load: 89.4 ± 3.3 mg/dL
  Blood glucose profile, 120 min post glucose load: 69.4 ± 2.3 mg/dL
[1]; Table 2, sucrose loaded rat
  % Antihyperglycemic activity SLM: 24.4%
[1]; all the models including db/+ mice models
  anti-diabetic activity, in words: better anti-diabetic activity
[2]; 100 mg/kg
  Blood glucose level, 0 min post sucrose load: 222.0 ± 7.9 mg/dL
  Blood glucose level, 30 min post sucrose load: 452.6 ± 18.2 mg/dL
  Blood glucose level, 60 min post sucrose load: 524.8 ± 11.2 mg/dL
  Blood glucose level, 90 min post sucrose load: 468.2 ± 12.6 mg/dL
  Blood glucose level, 120 min post sucrose load: 412.6 ± 5.8 mg/dL
  Blood glucose level, 180 min post sucrose load: 345.2 ± 9.2 mg/dL
  Blood glucose level, 240 min post sucrose load: 311.6 ± 3.7 mg/dL
  Blood glucose level, 300 min post sucrose load: 264.8 ± 8.7 mg/dL
  Blood glucose level, 1440 min post sucrose load: 414.8 ± 8.3 mg/dL
[2]; Table 2
  % Antihyperglycemic activity STZ-S 0-5 hr: 28.9%
  % Antihyperglycemic activity STZ-S 0-24 hr: 25.2%
[3]
  Blood glucose level, 0 min post sucrose load: 357.4 ± 17.9 mg/dL
  Blood glucose level, 30 min post sucrose load: 353.8 ± 6.3 mg/dL
  Blood glucose level, 60 min post sucrose load: 387.0 ± 20.8 mg/dL
  Blood glucose level, 90 min post sucrose load: 374.4 ± 23.1 mg/dL
  Blood glucose level, 120 min post sucrose load: 375.0 ± 20.2 mg/dL
  Blood glucose level, 180 min post sucrose load: 366.6 ± 16.7 mg/dL
  Blood glucose level, 240 min post sucrose load: 333.0 ± 11.7 mg/dL
  Blood glucose level, 300 min post sucrose load: 301.4 ± 12.1 mg/dL
  Blood glucose level, 1440 min post sucrose load: 408.0 ± 17.1 mg/dL
[4]; 30 mg/kg oral
  enhancement of lipoprotein lipase: 19.4%
  enhancement of serum HDL-cholesterol: 17.8%
  lowering of LDL-cholesterol (LDL-C) level: 32.3%
  lowering of non-esterified fatty acid (NEFA): 12.3%
  lowering of serum glycerol level: 25.7%
  lowering of serum triglycerides level (TG): 32.8%
  lowering of total cholesterol (T-Chol) level: 23.1%
[4]; 30 mg/kg p.o., 7 days
  Chol, change vs HFD control (in parentheses): (−23.1)* %
  Glycerol, change vs HFD control (in parentheses): (−25.7) %
  HDL-C, change vs HFD control (in parentheses): (+17.8) %
  LDL-C, change vs HFD control (in parentheses): (−32.3)* %
  Lipoprotein lipase, change vs HFD control (in parentheses): (+19.4) %
  NEFA, change vs HFD control (in parentheses): (−12.3) %
  TG, change vs HFD control (in parentheses): (−32.8)* %
[4]; 30 mg/kg p.o., 7 days, serum
  Chol: 257.2 ± 22.4 mg/dL
  Glycerol: 1004.9 ± 40.2 µmol/L
  HDL-C: 168.2 ± 8.90 mg/dL
  LDL-C: 179.6 ± 13.2 mg/dL
  Lipoprotein lipase: 36.3 ± 3.90 U/L
  NEFA: 5.70 ± 0.42 mmol/L
  TG: 501.8 ± 45.7 mg/dL
[4]; vs control group, FIG. 10
  effect on body weight, in words: effectively inhibited the rise in body weight
[5]; SGF
  stability in simulated gastric fluid (SGF): low stability
[5]; SIF
  stability in simulated intestinal fluid (SIF): good stability
